In publication doi:10.1101/2024.09.26.610356v2 (biorxiv, 2024):

Key:
[1] = target: T1, human glucose-6-phosphate isomerase (GPI) (Homo sapiens, UniProt P06744); assay: label-free MST; format: binding
[2] = target: T1, human glucose-6-phosphate isomerase (GPI); assay: G6PDH-coupled kinetic assay, dose response; format: biochemical
[3] = target: T1, human glucose-6-phosphate isomerase (GPI); assay: Michaelis-Menten kinetics, G6PDH-coupled assay; format: biochemical
[4] = target: T2, human triosephosphate isomerase (TPI) (Homo sapiens, UniProt P60174); assay: label-free MST; format: binding
[5] = target: T2, human triosephosphate isomerase (TPI); assay: GAPDH-coupled kinetic assay, dose response; format: biochemical
[6] = target: T2, human triosephosphate isomerase (TPI); assay: Michaelis-Menten kinetics, GAPDH-coupled assay; format: biochemical

T2 sequence (P60174 whole entry): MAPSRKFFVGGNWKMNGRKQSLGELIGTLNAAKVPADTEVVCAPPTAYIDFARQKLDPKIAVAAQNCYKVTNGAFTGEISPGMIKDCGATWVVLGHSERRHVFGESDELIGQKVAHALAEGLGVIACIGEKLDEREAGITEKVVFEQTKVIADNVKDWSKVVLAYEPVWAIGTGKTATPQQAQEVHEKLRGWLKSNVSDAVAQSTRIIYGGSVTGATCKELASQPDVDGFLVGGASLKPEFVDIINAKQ

## C=C(OP(=O)(O)O)C(=O)O [Phosphoenolpyruvate]
[1]
  Kd: 11.1 ± 1.44 mM
[2]
  EC50: 11.8 ± 1.33 mM
[3]
  Ki: 5.61 mM

## O=C(O)/C=C\C(=O)O [Maleate]
[1]
  Kd: 14.4 ± 2.07 mM
[2]
  EC50: 9.48 ± 2.85 mM
[3]
  Ki: 7.15 mM

## C/C(=C/C(=O)O)C(=O)O [Citraconate]
[1]
  Kd: 20.1 ± 2.03 mM
[2]
  EC50: 8.05 ± 2.34 mM
[3]
  Ki: 2.17 mM

## NO [Hydroxylamine]
[2]
  EC50: 14.6 ± 1.99 mM
[3]
  Ki: 21.1 mM

## O=C(O)C(=O)O [Oxalate]
[4]
  Kd: 19.1 ± 1.38 mM
[5]
  EC50: 12.6 ± 0.76 mM
[6]
  Ki: 27.3 mM

## O=P(O)(O)OC[C@H](O)CO [Glycerol-3-phosphate]
[4]
  Kd: 6.79 ± 2.3 mM
[5]
  EC50: 8.65 ± 1.49 mM
[6]
  Ki: 2.04 mM

## NCCc1c[nH]cn1 [Histamine]
[1]
  Kd: 13.1 ± 0.64 mM
[2]
  EC50: 7.35 ± 1.26 mM
[3]
  Ki: 9.25 mM

## Nc1ncnc2c1ncn2[C@@H]1O[C@H](COP(=O)(O)OP(=O)(O)O)[C@@H](O)[C@H]1O [ADP]
[1]
  Kd: 19.3 ± 0.96 mM
[2]
  EC50: 8.66 ± 1.37 mM
[3]
  Ki: 3.97 mM

## O=C(CO)COP(=O)(O)O [Dihydroxyacetone phosphate]
[1]
  Kd: 17.5 ± 0.98 mM
[2]
  EC50: 8.24 ± 1.94 mM
[3]
  Ki: 4.47 mM

## CC(C(=O)O)C(=O)O [Methylmalonate]
[4]
  Kd: 12.2 ± 1.9 mM
[5]
  EC50: 16.3 ± 2.54 mM
[6]
  Ki: 17.3 mM

## O=P(O)(O)OC(CO)CO [Glycerol-2-phosphate]
[4]
  Kd: 5.31 ± 1.07 mM
[5]
  EC50: 7.31 ± 1.22 mM
[6]
  Ki: 1.89 mM
